According to patent EP0630897A2, “3-Hydroxy-4-hydroxymethyl-2-methylene-cyclopentyl purines and pyrimidines” (BRISTOL-MYERS SQUIBB COMPANY, priority 1993, dated 1994):

Columns and labels:
Type in all cases: cell-based
[1] = system: HSV-1 (herpes simplex virus type 1, strain Schooler); assay: Plaque reduction antiviral assay in WI-38 cell culture, HSV-1; details: Human alphaherpesvirus 1, 96 h; WI-38 monolayers, at least 50% plaque reduction, 4 days incubation at 37°C; read-out: ID50(μM) for the following viruses HSV-1
Procedure: (§1) Assays were performed in cell culture systems to determine the concentrations of compounds that are effective in preventing several kinds of viral infections. HSV-1 (herpes simplex virus type 1, strain Schooler), HSV-2 (herpes simplex virus type 2, strain 186), VZV (varicella zoster virus, strain ELLEN), HCMV (human cytomegalovirus, strain AD 169). HSV-1, HSV-2, HCMV and VZV antiviral assays: Virus was adsorbed to WI-38 cell culture monolayers in 6 well culture plates (Costar, Cambridge, MA) for 1 hour prior to addition of maintenance medium containing duplicate dilutions of the test compound. Inhibition of plaque development was evaluated on fixed and stained monolayers after 4 days incubation at 37°C. for HSV-1 and HSV-2, and after 5 - 7 days incubation at 37°C. for HCMV and VZV. ID₅₀ values were determined from the drug concentration which conferred at least a 50% plaque reduction compared to virus controls.

[2] = system: HSV-2 (herpes simplex virus type 2, strain 186); assay: Plaque reduction antiviral assay in WI-38 cell culture, HSV-2; details: Human alphaherpesvirus 2, 96 h; WI-38 monolayers, at least 50% plaque reduction, 4 days incubation at 37°C; read-out: ID50(μM) for the following viruses HSV-2
Procedure: as §1

[3] = system: VZV (varicella zoster virus, strain ELLEN); assay: Plaque reduction antiviral assay in WI-38 cell culture, VZV; details: Human alphaherpesvirus 3; WI-38 monolayers, at least 50% plaque reduction, 5 - 7 days incubation at 37°C; read-out: ID50(μM) for the following viruses VZV
Procedure: as §1

[4] = system: HCMV (human cytomegalovirus, strain AD 169); assay: Plaque reduction antiviral assay in WI-38 cell culture, HCMV; details: Human betaherpesvirus 5; WI-38 monolayers, at least 50% plaque reduction, 5 - 7 days incubation at 37°C; read-out: ID50(μM) for the following viruses HCMV
Procedure: as §1

[5] = Visible toxicity to the cell monolayers under the antiviral assay conditions; details: human, wi-38 cells; concentration at which toxicity was visible
Procedure: HSV-1, HSV-2, HCMV and VZV antiviral assays: Virus was adsorbed to WI-38 cell culture monolayers in 6 well culture plates (Costar, Cambridge, MA) for 1 hour prior to addition of maintenance medium containing duplicate dilutions of the test compound. Inhibition of plaque development was evaluated on fixed and stained monolayers after 4 days incubation at 37°C. for HSV-1 and HSV-2, and after 5 - 7 days incubation at 37°C. for HCMV and VZV. ID₅₀ values were determined from the drug concentration which conferred at least a 50% plaque reduction compared to virus controls.

Structure (SMILES) | IC50 [1] [µM] | IC50 [2] [µM] | IC50 [3] [µM] | IC50 [4] [µM] | MCC [5] [µM]
C=C1C(O)C(CO)CC1n1cnc2c(=O)[nH]c(N)nc21 (stereo not drawn) [Example 1, (1α,3β,4α)-2-Amino-1,9-dihydro-9-[3-hydroxy-4-(hydroxymethyl)-2-methylenecyclopentyl]-6H-purin-6-one] | 4 to 7 | 7 to 18 | 7 to 18 | 7 | 361
C=C1C(O)C(CO)CC1n1cnc2c(N)ncnc21 (stereo not drawn) [Example 2, (1α,2β,4α)-4-(6-Amino-9H-purin-9-yl)-2-hydroxy-3-methylenecyclopentanemethanol] | 383 | 383 | > 38 | > 38 | 383
C=C1C(O)C(CO)CC1n1cc(C)c(=O)[nH]c1=O (stereo not drawn) [Example 3, (1α,3β,4α)-1-[3-Hydroxy-4-(hydroxymethyl)-2-methylenecyclopentyl]-5-methyl-2,4(1H,3H)-pyrimidinedione] | 100 to 200 | > 396 | 40 | > 396 | 396
C=C1C(O)C(CO)CC1n1cc(I)c(=O)[nH]c1=O (stereo not drawn) [Example 4, (1α,3β,4α)-1-[3-Hydroxy-4-(hydroxymethyl)-2-methylenecyclopentyl]-5-iodo-2,4(1H,3H)-pyrimidinedione] | > 275 | > 275 | 275 | 28 to 275 | 275
C=C1C(O)C(CO)CC1n1cc(C=CBr)c(=O)[nH]c1=O (stereo not drawn) [Example 5, [1α(E),3β,4α]-5-[2-Bromoethenyl)-1-[3-hydroxy-4-(hydroxymethyl)-2-methylenecyclopentyl]-2,4-(1H,3H)-pyrimidinedione] | 291 | > 291 | 1.5 to 3 | – | 291
